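Protocol summary: plate cells (96-well), add compound at 5 concentrations, incubate 48 h, interpolate endpoints linearly. GI50 is the concentration that inhibits growth by half.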 Calls of active or inactive are those of the source. No stated cut-off is given here; in the data, active = GI50 up to about 1.1 µM and inactive = higher.
How the values were obtained:
Experiment in all cases: DTP human tumour cell line panel, 48 h
[1] = test system: SW-620
[2] = test system: DU-145
[3] = test system: SF-268
[4] = test system: SF-539
[5] = test system: MDA-N
[6] = test system: LOX IMVI
[7] = test system: OVCAR-8
[8] = test system: TK-10
[9] = test system: A549
[10] = test system: HOP-92
[11] = test system: PC-3
[12] = test system: MOLT-4
[13] = test system: RPMI-8226
[14] = test system: BT-549
[15] = test system: T47D
[16] = test system: HCT-15
[17] = test system: UACC-257
[18] = test system: SN12C
[19] = test system: OVCAR-4
[20] = test system: HL-60

| SMILES | GI50 [1] | GI50 [2] | GI50 [3] | GI50 [4] | GI50 [5] | GI50 [6] | GI50 [7] | GI50 [8] | GI50 [9] | GI50 [10] | GI50 [11] | GI50 [12] | GI50 [13] | GI50 [14] | GI50 [15] | GI50 [16] [µM] | GI50 [17] | GI50 [18] | GI50 [19] | GI50 [20] |
| --- | --- | --- | --- | --- | --- | --- | --- | --- | --- | --- | --- | --- | --- | --- | --- | --- | --- | --- | --- | --- |
| COc1cccc(C2c3cc4c(cc3OC(N3CCCCC3)C2C)OCO4)c1OC (configuration not stated) | 3.93 µM (inactive) | 3.64 µM (inactive) | 8.2 µM (inactive) | 12.6 µM (inactive) | 11.2 µM (inactive) | 4.85 µM (inactive) | > 100 µM (inactive) | 16.5 µM (inactive) | 5.14 µM (inactive) | 5.4 µM (inactive) | 5.58 µM (inactive) | 4.42 µM (inactive) | 3.44 µM (inactive) | 9.06 µM (inactive) | 4.1 µM (inactive) | 3.37 | 5.94 µM (inactive) | 5.73 µM (inactive) | – | – |
| O=C1N[C@H](C(=O)O)[C@@H](c2ccc(OCc3ccccc3)cc2)O1 | > 100 µM (inactive) | 35.5 µM (inactive) | 25.4 µM (inactive) | – | > 100 µM (inactive) | – | 20.7 µM (inactive) | 27.4 µM (inactive) | 81.5 µM (inactive) | – | > 100 µM (inactive) | > 100 µM (inactive) | 11.6 µM (inactive) | 32.1 µM (inactive) | 26.3 µM (inactive) | 41.8 | > 100 µM (inactive) | 45.1 µM (inactive) | 29.7 µM (inactive) | – |
| CC1OC(OC2C(O[C@H]3CC[C@@H]4C(=CC[C@@H]5[C@@]4(C)C(=O)C[C@]4(C)[C@@H]([C@H](C)CC[C@@H](O)C(C)(C)O)CC[C@@]54C)C3(C)C)OC(CO)C(O)C2O)C(O)C(O)C1O (some centres not stated) | 35.3 µM (inactive) | > 100 µM (inactive) | > 100 µM (inactive) | > 100 µM (inactive) | > 100 µM (inactive) | > 100 µM (inactive) | > 100 µM (inactive) | > 100 µM (inactive) | > 100 µM (inactive) | > 100 µM (inactive) | > 100 µM (inactive) | 37.2 µM (inactive) | – | > 100 µM (inactive) | > 100 µM (inactive) | > 100 | > 100 µM (inactive) | > 100 µM (inactive) | > 100 µM (inactive) | > 100 µM (inactive) |
| Cc1ccc2c(c1)S(=O)(=O)c1ccc3ccccc3c1N2 | > 100 µM (inactive) | > 100 µM (inactive) | > 100 µM (inactive) | > 100 µM (inactive) | > 100 µM (inactive) | > 100 µM (inactive) | > 100 µM (inactive) | > 100 µM (inactive) | > 100 µM (inactive) | > 100 µM (inactive) | > 100 µM (inactive) | > 100 µM (inactive) | – | > 100 µM (inactive) | > 100 µM (inactive) | > 100 | > 100 µM (inactive) | > 100 µM (inactive) | > 100 µM (inactive) | > 100 µM (inactive) |
| C=CCC1C(O[Si](C)(C)C(C)(C)C)C(CO[Si](C)(C)C(C)(C)C)OC1n1ccc(=O)[nH]c1=O (configuration not stated) | 1.16 µM (inactive) | 1.52 µM (inactive) | – | 1.6 µM (inactive) | 1.51 µM (inactive) | 0.705 µM (active) | 1.7 µM (inactive) | – | 1.38 µM (inactive) | 1.05 µM (active) | 1.53 µM (inactive) | 0.597 µM (active) | 1.4 µM (inactive) | 1.93 µM (inactive) | 1.3 µM (inactive) | 1.15 | 1.68 µM (inactive) | 1.38 µM (inactive) | 1.15 µM (inactive) | – |
| O=C(N/N=C1\CCc2ccccc2C1)N/N=C1\CCc2ccccc2C1 | > 10 µM (inactive) | > 10 µM (inactive) | > 10 µM (inactive) | – | > 10 µM (inactive) | – | > 10 µM (inactive) | > 10 µM (inactive) | > 10 µM (inactive) | – | > 10 µM (inactive) | > 10 µM (inactive) | > 10 µM (inactive) | > 10 µM (inactive) | > 10 µM (inactive) | > 10 | > 10 µM (inactive) | > 10 µM (inactive) | > 10 µM (inactive) | > 10 µM (inactive) |
| COc1ccc2c(c1)CC1(O)COc3cc(OC)ccc3C1O2 (configuration not stated) | 95.1 µM (inactive) | > 100 µM (inactive) | > 100 µM (inactive) | > 100 µM (inactive) | > 100 µM (inactive) | > 100 µM (inactive) | > 100 µM (inactive) | > 100 µM (inactive) | > 100 µM (inactive) | > 100 µM (inactive) | > 100 µM (inactive) | 48.4 µM (inactive) | 59 µM (inactive) | > 100 µM (inactive) | 85.7 µM (inactive) | 96.2 | 61.8 µM (inactive) | > 100 µM (inactive) | 63.7 µM (inactive) | – |
| Nc1ccc([As](=O)(O)O)cc1 [ARSANILIC ACID] | > 100 µM (inactive) | > 100 µM (inactive) | > 100 µM (inactive) | > 100 µM (inactive) | > 100 µM (inactive) | > 100 µM (inactive) | > 100 µM (inactive) | > 100 µM (inactive) | > 100 µM (inactive) | > 100 µM (inactive) | > 100 µM (inactive) | > 100 µM (inactive) | – | > 100 µM (inactive) | > 100 µM (inactive) | > 100 | > 100 µM (inactive) | > 100 µM (inactive) | > 100 µM (inactive) | > 100 µM (inactive) |
| COC(=O)Nc1nc2cc(C(=O)c3cccs3)ccc2[nH]1 [NOCODAZOLE] | 0.0141 µM (active) | – | 0.0893 µM (active) | – | 0.0124 µM (active) | 0.0214 µM (active) | 0.029 µM (active) | 2.95 µM (inactive) | 0.0186 µM (active) | 0.292 µM (active) | 0.0141 µM (active) | 0.0205 µM (active) | < 0.0132 µM (active) | 0.0527 µM (active) | > 80.9 µM (inactive) | 0.0198 | < 0.148 µM (active) | 0.074 µM (active) | 22.3 µM (inactive) | 0.0113 µM (active) |
| CC1=CC2C3(C)C(C)(C(C)=CP3(=O)c3c(C(C)C)cc(C(C)C)cc3C(C)C)C1P2(=O)c1c(C(C)C)cc(C(C)C)cc1C(C)C (configuration not stated) | 3.08 µM (inactive) | 3.5 µM (inactive) | 3.3 µM (inactive) | – | 2.21 µM (inactive) | 1.58 µM (inactive) | 3.37 µM (inactive) | 2.55 µM (inactive) | 2.42 µM (inactive) | 1.64 µM (inactive) | 2.7 µM (inactive) | 1.66 µM (inactive) | 0.916 µM (active) | 1.77 µM (inactive) | 1.33 µM (inactive) | 1.95 | 1.7 µM (inactive) | 2.58 µM (inactive) | 3.25 µM (inactive) | 1.09 µM (active) |
| COc1ccc(CCNC(=O)c2ccccc2C2c3ccc(OCc4ccccc4)cc3Oc3cc(OCc4ccccc4)ccc32)cc1OC | > 100 µM (inactive) | > 100 µM (inactive) | > 100 µM (inactive) | – | > 100 µM (inactive) | > 100 µM (inactive) | > 100 µM (inactive) | > 100 µM (inactive) | > 100 µM (inactive) | – | > 100 µM (inactive) | > 100 µM (inactive) | > 100 µM (inactive) | > 100 µM (inactive) | > 100 µM (inactive) | > 100 | 94.6 µM (inactive) | > 100 µM (inactive) | > 100 µM (inactive) | 0.668 µM (active) |
| COC(=O)c1c(O)ccc2c1c1c(n2CCc2ccc(OC)c(OC)c2)C(=O)c2ccccc2C1=O | – | 15.6 µM (inactive) | 17.5 µM (inactive) | 14.4 µM (inactive) | 10.9 µM (inactive) | – | 10.5 µM (inactive) | 21.6 µM (inactive) | 14.5 µM (inactive) | 14.6 µM (inactive) | 14.9 µM (inactive) | 9.25 µM (inactive) | 6.55 µM (inactive) | 10.9 µM (inactive) | 12 µM (inactive) | 12.7 | 16.6 µM (inactive) | 21.9 µM (inactive) | 13.7 µM (inactive) | 23.4 µM (inactive) |
| COc1cc(CCCOC(=O)/C=C/c2ccc(O)c(O)c2)cc(O)c1O | 18.8 µM (inactive) | > 100 µM (inactive) | 25.2 µM (inactive) | 28.4 µM (inactive) | 22.8 µM (inactive) | 17.6 µM (inactive) | 70.8 µM (inactive) | > 100 µM (inactive) | 69.2 µM (inactive) | – | 32.4 µM (inactive) | 27.5 µM (inactive) | 27.4 µM (inactive) | 30.7 µM (inactive) | 27.9 µM (inactive) | 91.8 | > 100 µM (inactive) | 29.2 µM (inactive) | 40 µM (inactive) | 25.5 µM (inactive) |
| [O-][n+]1nc(N2CCOCC2)nc2ccccc21 | > 100 µM (inactive) | > 100 µM (inactive) | > 100 µM (inactive) | > 100 µM (inactive) | > 100 µM (inactive) | > 100 µM (inactive) | > 100 µM (inactive) | 77.1 µM (inactive) | > 100 µM (inactive) | – | > 100 µM (inactive) | > 100 µM (inactive) | > 100 µM (inactive) | > 100 µM (inactive) | > 100 µM (inactive) | > 100 | > 100 µM (inactive) | > 100 µM (inactive) | – | > 100 µM (inactive) |
| CC1(C)CO[P@@](=S)(c2ccccn2)O[C@@H]1c1ccccc1 | > 100 µM (inactive) | > 100 µM (inactive) | > 100 µM (inactive) | – | > 100 µM (inactive) | > 100 µM (inactive) | > 100 µM (inactive) | > 100 µM (inactive) | > 100 µM (inactive) | > 100 µM (inactive) | > 100 µM (inactive) | 44.5 µM (inactive) | – | > 100 µM (inactive) | > 100 µM (inactive) | 94.4 | > 100 µM (inactive) | > 100 µM (inactive) | 73.6 µM (inactive) | > 100 µM (inactive) |

— ChEMBL document CHEMBL1201862, “PubChem BioAssay data set” (2004)
